Among the data in US10124004B2, “Pyrido[3,4-d]pyrimidine derivative and pharmaceutically acceptable salt thereof” (Teijin Pharma Limited, priority 2015, dated 2018) are IC50 values, retold here.

SMILES strings stand for the structures.

One experiment addresses T1, CDK4/cyclin D3 (Homo sapiens, UniProt P11802).
T1 construct: purchased Carna Biosciences, Inc. QS S Assist CDK4/Cyclin D3_FP Kit
Briefly: Human CDK4/cyclin D3 inhibitory activity (QS S Assist CDK4/Cyclin D3_FP Kit, IMAP fluorescence polarization). The experiment is classed as biochemical. To be noted: Human CDK4/cyclin D3 inhibitory activity; read-out: CDK4 Activity symbol. A digest of the protocol: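 Percent inhibition, relative to DMSO with and without enzyme, was curve-fitted to give IC50 from polarization (ex 485, em 535 nm). The 45-min room-temperature reaction used 12.5-25 ng/well enzyme, kit ATP/substrate/metal mix, and HEPES pH 7.4 buffer with Tween20 and DTT, followed by 30-min IMAP binding in the dark.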
A general note: Polarisation of emitted light reports the rotation of a fluorescent probe.

Another experiment addresses T2, CDK2/cyclin A2 (Homo sapiens, UniProt P24941).
T2 construct: purchased Carna Biosciences, Inc. QS S Assist CDK2/Cyclin A2_FP Kit
Nature of the experiment: Human CDK2/cyclin A2 inhibitory activity (QS S Assist CDK2/Cyclin A2_FP Kit, IMAP fluorescence polarization). The experiment is classed as biochemical. To be noted: Human CDK2/cyclin A2 inhibitory activity; read-out: CDK2 Activity symbol. The procedure: Human CDK2/Cyclin A^2 Inhibitory Activity
Each compound was analyzed for CDK2/cyclin A2 inhibitory activity with an assay kit (QS S Assist CDK2/Cyclin A2_FP Kit, available from Carna Biosciences, Inc.). This assay kit determines kinase activity on the basis of the IMAP technology by Molecular Devices. Specifically, the kinase activity is determined through quantification of a variation in fluorescent polarization caused by binding of a kinase-phosphorylated fluorescent substance to an IMAP-binding reagent.
An assay buffer was prepared by 10-fold dilution of the 10× assay buffer attached to the kit with distilled water, and each solution was prepared with the assay buffer. The assay buffer contained 20 mM HEPES (pH 7.4), 0.01% Tween 20, and 2 mM dithiothreitol. A test compound solution was prepared by dilution of the test compound with dimethyl sulfoxide (DMSO) to a concentration 100 times higher than the final concentration and then 25-fold dilution with the assay buffer to a concentration four times higher than the final concentration. An ATP/substrate/Metal solution was prepared by five-fold dilution of the 5×ATP/substrate/Metal solution attached to the kit with the assay buffer. An enzyme solution was prepared by dilution of the CDK2/cyclin A2 attached to the kit with the assay buffer to a concentration twice higher than the final concentration (final concentration of CDK2/cyclin A2: 2.5 ng/well). A detection reagent was prepared by five-fold dilution of 5×IMAP-binding buffer A with distilled water and 400-fold dilution of the IMAP-binding reagent with the diluted buffer.
The test compound solution (5 μL/well) and the ATP/substrate/Metal solution (5 μL/well) were added to a 384-well plate, and the enzyme solution or the assay buffer (10 μL/well) was added to the plate (total amount of the reaction mixture: 20 μL/well) for initiation of enzymatic reaction. […] The reaction was performed at room temperature for 60 minutes, and the detection reagent (60 μL/well) was then added to the plate, followed by further reaction for 30 minutes at room temperature under light shielding conditions. Subsequently, fluorescent polarization was determined with a microplate reader at an excitation wavelength of 485 nm and an emission wavelength of 535 nm.
The percent inhibition of enzyme activity was calculated for each test compound (note: enzyme activity=100% in the case of addition of the enzyme solution and addition of DMSO instead of the test compound solution, whereas enzyme activity=0% in the case of addition of the assay buffer instead of the enzyme solution and addition of DMSO instead of the test compound solution). The percent inhibition of enzyme activity was fitted to a dose-response curve, to determine a 50% inhibitory concentration against CDK2/cyclin A2.
In each table, “+++” corresponds to IC50<10 nM, “++” 10 nM≤IC50<100 nM, and “+” 100 nM≤IC50.

T1 sequence (P11802 whole entry): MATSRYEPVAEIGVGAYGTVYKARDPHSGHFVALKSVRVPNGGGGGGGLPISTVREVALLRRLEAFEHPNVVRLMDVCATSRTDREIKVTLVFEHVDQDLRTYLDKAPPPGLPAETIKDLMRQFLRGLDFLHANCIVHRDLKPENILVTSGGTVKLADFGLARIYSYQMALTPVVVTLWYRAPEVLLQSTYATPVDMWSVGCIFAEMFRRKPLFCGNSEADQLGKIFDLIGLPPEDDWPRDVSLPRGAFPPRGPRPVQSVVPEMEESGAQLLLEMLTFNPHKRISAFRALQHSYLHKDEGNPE
T1 sequence (P30281 whole entry partner): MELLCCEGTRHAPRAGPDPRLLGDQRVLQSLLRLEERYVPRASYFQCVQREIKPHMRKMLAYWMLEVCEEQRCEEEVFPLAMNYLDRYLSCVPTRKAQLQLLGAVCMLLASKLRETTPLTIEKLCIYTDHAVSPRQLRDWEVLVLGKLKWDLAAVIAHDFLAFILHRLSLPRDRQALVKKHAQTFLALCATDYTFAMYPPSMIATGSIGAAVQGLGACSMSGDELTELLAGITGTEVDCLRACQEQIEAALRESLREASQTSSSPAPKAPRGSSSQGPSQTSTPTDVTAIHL

Turning to `CCNc1nc(C(C)O)cc2cnc(Nc3ccc(N4CCNCC4)cn3)nc12` (centres unmarked) [Compound 23], the IC50 on CDK4/cyclin D3 was below 10 nM; at CDK2/cyclin A2, at least 100 nM.
Taken in the same sequence, the figures for `CC(O)c1cc2cnc(Nc3ccc(N4CCNCC4)cn3)nc2c(NC(C)(C)C)n1` (centres unmarked) [Compound 24] were below 10 nM and at least 100 nM.
For `CC(O)c1cc2cnc(Nc3ccc(N4CCNCC4)cn3)nc2c(Nc2ccccc2)n1` (centres unmarked) [Compound 26] the same measures were below 10 nM and at least 100 nM.
Taken in the same sequence, the figures for `CC(O)c1cc2cnc(Nc3ccc(N4CCNCC4)cn3)nc2c(Nc2ccn[nH]2)n1` (centres unmarked) [Compound 27] were 10 to 100 nM and at least 100 nM.
Regarding `COCC(C)Nc1nc(C(C)O)cc2cnc(Nc3ccc(N4CCNCC4)cn3)nc12` (centres unmarked) [Compound 28], the IC50 on CDK4/cyclin D3 was below 10 nM; at CDK2/cyclin A2, at least 100 nM.
For `COCC(C)(C)Nc1nc(C(C)O)cc2cnc(Nc3ccc(N4CCNCC4)cn3)nc12` (centres unmarked) [Compound 29] the same measures were below 10 nM and at least 100 nM.
Taken in the same sequence, the figures for `COCC(C)Nc1nc(C(F)F)cc2cnc(Nc3ccc(N4CCNCC4)cn3)nc12` (centres unmarked) [Compound 30] were below 10 nM and 10 to 100 nM.
Taken in the same sequence, the figures for `COCC(C)(C)Nc1nc(C(F)F)cc2cnc(Nc3ccc(N4CCNCC4)cn3)nc12` [Compound 31] were below 10 nM and at least 100 nM.
Turning to `CC(O)c1cc2cnc(Nc3ccc(N4CCNCC4)cn3)nc2c(Nc2cn[nH]c2)n1` (centres unmarked) [Compound 32], the figures for the IC50 at CDK4/cyclin D3 and on CDK2/cyclin A2 were below 10 nM and at least 100 nM, respectively.
For `FC(F)c1cc2cnc(Nc3ccc(N4CCNCC4)cn3)nc2c(NC2COC2)n1` [Compound 33] the same measures were at least 100 nM and at least 100 nM.
Regarding `CC(C)Nc1nc(C(=O)N(C)C)cc2cnc(Nc3ccc(N4CCNCC4)cn3)nc12` [Compound 34], the results for the IC50 on CDK4/cyclin D3 and on CDK2/cyclin A2 were 10 to 100 nM and at least 100 nM, respectively.
Taken in the same sequence, the figures for `CC(=O)c1cc2cnc(Nc3ccc(N4CCNCC4)cn3)nc2c(NC(C)C)n1` [Compound 35] were below 10 nM and at least 100 nM.
For `CC(O)c1cc2cnc(Nc3ccc(N4CCNCC4)cn3)nc2c(NCC(F)F)n1` (centres unmarked) [Compound 36] the same measures were at least 100 nM and at least 100 nM.
Taken in the same sequence, the figures for `COC(C)c1cc2cnc(Nc3ccc(N4CCNCC4)cn3)nc2c(NC(C)C)n1` (centres unmarked) [Compound 37] were below 10 nM and at least 100 nM.
In the case of `CO[C@@H](C)c1cc2cnc(Nc3ccc(N4CCNCC4)cn3)nc2c(NC(C)C)n1` [Compound 38], the IC50 was below 10 nM on CDK4/cyclin D3 and at least 100 nM on CDK2/cyclin A2.
For `CO[C@H](C)c1cc2cnc(Nc3ccc(N4CCNCC4)cn3)nc2c(NC(C)C)n1` [Compound 39] the same measures were below 10 nM and at least 100 nM.
For `CC(O)c1cc2cnc(Nc3ccc(N4CCNCC4)cn3)nc2c(NCC(F)(F)F)n1` (centres unmarked) [Compound 40] the same measures were below 10 nM and at least 100 nM.
For the molecule `CC(CO)Nc1nc(C(C)O)cc2cnc(Nc3ccc(N4CCNCC4)cn3)nc12` (centres unmarked) [Compound 41], the IC50 at CDK4/cyclin D3 is below 10 nM; at CDK2/cyclin A2, at least 100 nM.
For `CC(C)Nc1nc(C(F)F)cc2cnc(Nc3ccc(N4CCN(C)CC4)cn3)nc12` [Compound 42] the same measures were below 10 nM and 10 to 100 nM.
Consider `CC(C)Nc1nc(C(F)F)cc2cnc(Nc3ccc(N4CCOCC4)cn3)nc12` [Compound 43], for which the IC50 is below 10 nM at CDK4/cyclin D3 and 10 to 100 nM at CDK2/cyclin A2.
For `COCc1cc2cnc(Nc3ccc(N4CCNCC4)cn3)nc2c(NC(C)C)n1` [Compound 44] the same measures were below 10 nM and at least 100 nM.
Taken in the same sequence, the figures for `CC(O)c1cc2cnc(Nc3ccc(N4CCNCC4)cn3)nc2c(NC(C)(C)CO)n1` (centres unmarked) [Compound 45] were below 10 nM and at least 100 nM.
Taken in the same sequence, the figures for `CC(C)Nc1nc(C(F)F)cc2cnc(Nc3ccc(N4CCNCC4)cn3)nc12` [Compound 46] were below 10 nM and 10 to 100 nM.
For `CC(C)Nc1nc(C(F)F)cc2cnc(Nc3ccc(CN4CCNCC4)cn3)nc12` [Compound 47], the IC50 on CDK4/cyclin D3 is below 10 nM; on CDK2/cyclin A2, 10 to 100 nM.
Taken in the same sequence, the figures for `CC(O)c1cc2cnc(Nc3ccc(N4CCNCC4)cn3)nc2c(NC2CCC2)n1` (centres unmarked) [Compound 48] were below 10 nM and at least 100 nM.
Taken in the same sequence, the figures for `CC(C)Nc1nc(C(F)F)cc2cnc(Nc3ccc(N4CCN(CCO)CC4)cn3)nc12` [Compound 49] were below 10 nM and 10 to 100 nM.
For `CC(C)Nc1nc(C(F)F)cc2cnc(Nc3ccc(N4CCC(O)CC4)cn3)nc12` [Compound 50] the same measures were below 10 nM and 10 to 100 nM.
In the case of `CC(C)Nc1nc(C(F)F)cc2cnc(Nc3ccc(N4CCC(CCCO)CC4)cn3)nc12` [Compound 51], the IC50 was 10 to 100 nM at CDK4/cyclin D3 and at least 100 nM at CDK2/cyclin A2.
For `CC(C)Nc1nc(C(F)F)cc2cnc(Nc3ccc(N4CCC(N)C4)cn3)nc12` (centres unmarked) [Compound 52] the same measures were below 10 nM and 10 to 100 nM.
Taken in the same sequence, the figures for `CC(C)Nc1nc(C(F)F)cc2cnc(Nc3ccc(N4CCC(O)C4)cn3)nc12` (centres unmarked) [Compound 53] were below 10 nM and 10 to 100 nM.
Taken in the same sequence, the figures for `CC(O)c1cc2cnc(Nc3ccc(N4CCNCC4)cn3)nc2c(NC(C)C(F)(F)F)n1` (centres unmarked) [Compound 54] were below 10 nM and at least 100 nM.
Consider `CC(C)Nc1nc(C(F)F)c(F)c2cnc(Nc3ccc(N4CCNCC4)cn3)nc12` [Compound 55], for which the results for the IC50 on CDK4/cyclin D3 and on CDK2/cyclin A2 were below 10 nM and 10 to 100 nM, respectively.
Take `CC(=O)c1cc2cnc(Nc3ccc(N4CCNCC4)cn3)nc2c(NC2CCOCC2)n1` [Compound 56]: the values for the IC50 at CDK4/cyclin D3 and on CDK2/cyclin A2 were below 10 nM and at least 100 nM, respectively.
Consider `CC(=O)c1cc2cnc(Nc3ccc(N4CCNCC4)cn3)nc2c(NC2CCCC2)n1` [Compound 57], for which the IC50 on CDK4/cyclin D3 was below 10 nM; on CDK2/cyclin A2 it was at least 100 nM.
Taken in the same sequence, the figures for `CCNc1nc(C(C)=O)cc2cnc(Nc3ccc(N4CCNCC4)cn3)nc12` [Compound 58] were 10 to 100 nM and at least 100 nM.
Taken in the same sequence, the figures for `CC(=O)c1cc2cnc(Nc3ccc(N4CCNCC4)cn3)nc2c(NC(C)(C)C)n1` [Compound 59] were below 10 nM and at least 100 nM.
Taken in the same sequence, the figures for `Cc1c(C(F)F)nc(NC(C)C)c2nc(Nc3ccc(N4CCNCC4)cn3)ncc12` [Compound 60] were below 10 nM and at least 100 nM.
As to `CC(C)Nc1nc(C(C)O)cc2cnc(Nc3ccc(N4CCC(O)CC4)cn3)nc12` (centres unmarked) [Compound 61], the results for the IC50 at CDK4/cyclin D3 and on CDK2/cyclin A2 were below 10 nM and at least 100 nM, respectively.
Taken in the same sequence, the figures for `Cc1c(CO)nc(NC(C)C)c2nc(Nc3ccc(N4CCNCC4)cn3)ncc12` [Compound 62] were below 10 nM and at least 100 nM.
Taken in the same sequence, the figures for `CC(C)Nc1nc([C@H](C)O)c(F)c2cnc(Nc3ccc(N4CCNCC4)cn3)nc12` [Compound 63] were below 10 nM and at least 100 nM.
Taken in the same sequence, the figures for `CC(C)Nc1nc([C@@H](C)O)c(F)c2cnc(Nc3ccc(N4CCNCC4)cn3)nc12` [Compound 64] were below 10 nM and at least 100 nM.
`Cc1c([C@H](C)O)nc(NC(C)C)c2nc(Nc3ccc(N4CCNCC4)cn3)ncc12` [Compound 65]: the IC50 was 10 to 100 nM on CDK4/cyclin D3 and at least 100 nM on CDK2/cyclin A2.
For `Cc1c([C@@H](C)O)nc(NC(C)C)c2nc(Nc3ccc(N4CCNCC4)cn3)ncc12` [Compound 66] the same measures were below 10 nM and at least 100 nM.
For the molecule `CC(C)Nc1nc(C(F)F)cc2cnc(Nc3ccc(N4CCNCC4)c(F)n3)nc12` [Compound 67], the figures for the IC50 at CDK4/cyclin D3 and at CDK2/cyclin A2 were below 10 nM and 10 to 100 nM, respectively.
`CC(=O)c1nc(NC(C)C)c2nc(Nc3ccc(N4CCNCC4)cn3)ncc2c1C` [Compound 68]: the IC50 on CDK4/cyclin D3 was below 10 nM; at CDK2/cyclin A2, at least 100 nM.
For `CC(O)c1cc2cnc(Nc3ccc(N4CCNCC4)cn3)nc2c(NCc2ccccc2)n1` (centres unmarked) [Compound 69] the same measures were below 10 nM and at least 100 nM.
